Test results from ChEMBL document CHEMBL1150800, “Multiple-dose escalation study of the safety, pharmacokinetics, and biologic activity of oral AMD070, a selective CXCR4 receptor inhibitor, in human subjects” (Antimicrob Agents Chemother, 2007).
≈ marks a conversion by molar mass, not a printed value.

System: Human immunodeficiency virus 1
Experiment: Antiviral activity against HIV1 NL4.3 in human MT4 cells
Format: functional, organism-based
Details: Human immunodeficiency virus 1, MT4

IC50: 1.5 ng/mL (≈ 2.98 nM)
Structure (SMILES): c1cc(CN2CCCNCCNCCCNCC2)ccc1CN1CCCNCCNCCCNCC1 [PLERIXAFOR]
